Consider 1 molecule from patent US20150132342A1, “NOVEL IMMUNE ACTIVATORS: SUBSTITUTE 4-AMINOQUINAZOLINES” (The Regents of the University of California, priority 2013, published 2015).

The target of one series is T1, TLR4/MD-2/CD14 (Homo sapiens, UniProt O00206+Q9Y6Y9).
T1 construct: host or cells: HEK293 (HEK Blue hTLR4)
Nature of the series: hTLR4 HEK Blue reporter cells, NF-κB SEAP secretion (QuantiBlue OD630). It counts as cell-based. On the procedure: In vitro assays using TLR reporter cell lines. Murine or humanTLR4 HEK Blue™ cells (Invivogen, 2.5×10^4 cells per well of a 96 well plate), or NF-κB/SEAPorter™ HEK 293 cells (Imgenex, San Diego, Calif.) for human TLR2, TLR3, TLR5, TLR7, TLR8, or TLR9 (5×10^4 cells per well of 96 well plate) were incubated with graded doses of the test compound. The culture supernatants were harvested after a 20-24 h incubation period. Secreted alkaline phosphatase (SEAP) activity in the supernatants was determined by a colorimetric assay, using either the SEAPorter Assay Kit (Imgenex, San Diego, Calif.), with absorbance read at 405 nm, or QuantiBlue (Invivogen), with absorbance read at 630 nm. In some experiments, graded concentrations of LPS-RS ([…], Invivogen) were used to test TLR4-specific binding of the hit compound.

A further series deals with human PBMC. Description: Type I IFN release by hPBMC measured in L929-ISRE luciferase reporter cells. Particulars: 10 μM, overnight; LPS 10 ng/mL comparator. Type of series: cell-based. The procedure:
Type I interferon (IFN) assay. L929 cells stably expressing an IFN sensitive response element (ISRE) luciferase reporter construct were kindly provided by Dr. B. Beutler (UT Southwestern, Dallas, Tex.)^7. The bioactivity oftype I IFN in hPBMC supernatants was measured by luciferase assay using L929-ISRE cells as described previously.^7 L929-ISRE cells were plated at 5×10^4 cells per well inDulbecco's Modified Eagle Medium (Life Technologies) supplemented with 10% FCS, 100 U/mL penicillin and 100 μg/mL streptomycinin a 96-well white-walled clear-bottom plate and incubated overnight. Thus, 50 μL of supernatant was incubated with L929-ISRE cells in 50 μL of DMEM for 6 h. The luciferase activities were measured by GloBrightLuciferase Assay Buffer (Promega, Madison, Wis.).
(A reporter such as luciferase makes a cellular process visible.)

The next series concerns THP-1 cells. Description: CellSensor NF-κB-bla THP-1 FRET β-lactamase reporter assay. Type of series: cell-based, human. Particulars: graded concentrations, normalized to LPS. The procedure: The assay with CellSensor® NF-κB-bla THP-1 cells was performed almost identically to that with CellSensor® NF-κB-bla RAW 264.7 cells, except that cells were harvested, resuspended, and plated in RPMI (plus 10% dialyzed FBS, 0.1 mM non-essential amino acids, 1 mM sodium pyruvate, 100 U/ml penicillin and 100 μg/ml streptomycin) and incubated with drugs for only 5 h prior to addition of the 6× substrate mixture. Plates were then incubated for 2 h prior to measurement of fluorescence.

The subject of the next series is mouse BMDC. Nature of the series: MTT viability of mouse BMDC. It counts as cell-based. As to conditions: 10 μM, 18 h incubation.
The target in the next series is T2, human TLR4/MD-2 (Homo sapiens, UniProt O00206+Q9Y6Y9).
T2 construct: expressed in transfected cells; host or cells: bone marrow derived macrophages of human TLR4 transgenic mice on a murine TLR4/MD-2 null C57BL/6 background (gift of Dr. L. Hajjar)
T2 sequence (O00206 24-839): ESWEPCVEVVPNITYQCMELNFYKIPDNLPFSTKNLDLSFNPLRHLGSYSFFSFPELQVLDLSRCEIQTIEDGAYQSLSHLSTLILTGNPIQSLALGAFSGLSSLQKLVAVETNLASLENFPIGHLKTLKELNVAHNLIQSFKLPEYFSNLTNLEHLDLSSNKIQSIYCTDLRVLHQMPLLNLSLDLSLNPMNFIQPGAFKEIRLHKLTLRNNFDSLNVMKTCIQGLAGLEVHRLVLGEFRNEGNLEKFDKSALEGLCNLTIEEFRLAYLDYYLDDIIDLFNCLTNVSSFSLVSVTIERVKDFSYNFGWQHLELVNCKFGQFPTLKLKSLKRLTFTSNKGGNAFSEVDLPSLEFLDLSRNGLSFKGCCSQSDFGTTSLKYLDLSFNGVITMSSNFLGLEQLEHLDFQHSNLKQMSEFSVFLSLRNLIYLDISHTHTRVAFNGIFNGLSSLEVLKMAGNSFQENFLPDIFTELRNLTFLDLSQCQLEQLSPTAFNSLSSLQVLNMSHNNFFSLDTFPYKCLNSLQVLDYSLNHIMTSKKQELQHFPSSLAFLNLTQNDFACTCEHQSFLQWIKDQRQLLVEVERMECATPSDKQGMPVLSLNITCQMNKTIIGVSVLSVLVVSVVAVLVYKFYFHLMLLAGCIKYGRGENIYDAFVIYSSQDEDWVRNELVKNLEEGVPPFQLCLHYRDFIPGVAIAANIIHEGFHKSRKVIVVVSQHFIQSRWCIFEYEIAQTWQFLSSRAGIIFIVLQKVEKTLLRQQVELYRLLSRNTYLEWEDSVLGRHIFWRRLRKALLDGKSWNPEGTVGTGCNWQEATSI
T2 sequence (Q9Y6Y9 19-160): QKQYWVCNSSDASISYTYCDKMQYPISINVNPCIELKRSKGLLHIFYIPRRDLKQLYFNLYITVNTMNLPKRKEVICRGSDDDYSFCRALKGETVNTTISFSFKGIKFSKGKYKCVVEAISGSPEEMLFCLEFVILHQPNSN
Description: BMDM from transgenic mice expressing human TLR4/MD-2 (IL-6, IP-10). Particulars: BMDM from human TLR4/MD-2 transgenic mice deficient for murine TLR4/MD-2. It counts as cell-based. The source says: Animals. Seven to 9 week-old C57BL/6 (wild type, WT) and Cd14^−/− (C57BL/6 background) mice were purchased from the Jackson Laboratories (Bar Harbor, Mass.). Tlr4^−/− mice (C57BL/6 background) were a gift from Dr. Shizuo Akira (Osaka University, Japan) and were backcrossed for 10 generations onto the C57BL/6 background at University of California, San Diego (UCSD). MD-2^−/− mice (C57BL/6 background) were originally generated by Dr. K. Miyake (University of Tokyo, Tokyo, Japan) and were kindly provided by Dr. L. Hajjar (University of Washington, Seattle, Wash.). Human TLR4 transgenic mice on murine TLR4/MD-2 null C57BL/6 background were kindly provided by Dr. L. Hajjar.^3 All animal experiments were approved by the UCSD Institutional Animal Care and Use Committee.
In vitro cytokine induction in bone marrow derived dendritic cells (BMDC) and macrophages (BMDM). […] The levels of IL-6 or IP-10 in the culture supernatants were determined by ELISA (BD Biosciences, La Jolla, Calif.).^5 Finally, all levels of cytokine release were normalized to those of LPSstimulation within each experiment, set at 100.

T1 sequence (O00206 24-839): as the sequence (O00206 24-839) above
T1 sequence (Q9Y6Y9 19-160): as the sequence (Q9Y6Y9 19-160) above

As to `CCOC(=O)c1nc(Nc2cc(Oc3ccccc3)cc([N+](=O)[O-])c2)c2ccccc2n1` [Compound 1a, Ethyl 4-((3-nitro-5-phenoxyphenyl)amino)quinazoline-2-carboxylate], at TLR4/MD-2/CD14 (0.5 μM, Quantiblue OD630 of hTLR4 HEK Blue cells, normalized to LPS positive control=100), the “hTLR4 0.5 μM” value amounted to 49.1. For the same molecule, the “NF-κB activation induced by compound in presence of competitive antagonist LPS-RS” value on TLR4/MD-2/CD14 (10 μM compound, LPS-RS 12, 111, 1000 ng/mL, dose dependent) is “inhibited”. Also, the “Release of type I IFN” value in the series on human PBMC is listed as “comparable to that of LPS”. Besides, in the series with THP-1 cells, the “NF-κB activation potency, human THP-1 versus mouse RAW264.7” value was “significantly more potent”. Also, in the series with mouse BMDC, the “Viability by MTT assay” value is reported as 117±2.6%. The “Activation of transgenic human TLR4/MD-2 complex relative to mouse TLR4/MD-2” value on human TLR4/MD-2 was “to a greater extent”.
